In PubChem BioAssay (NCI):
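Results reflect a 48-hour exposure of cells in 96-well plates to compound at five concentrations. GI50 marks 50% less growth. At the TGI there is no net growth.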

Legend:
Experiment in all cases: inhibition of tumour cell growth, NCI panel, 48 h
OVCAR-5 ovarian = test system: OVCAR-5 ovarian
HOP-92 NSCLC = test system: HOP-92 NSCLC
SN12C renal = test system: SN12C renal
SK-MEL-28 melanoma = test system: SK-MEL-28 melanoma
SK-OV-3 ovarian = test system: SK-OV-3 ovarian
SR leukemia = test system: SR leukemia
PC-3 prostate = test system: PC-3 prostate
K-562 leukemia = test system: K-562 leukemia
IGROV1 ovarian = test system: IGROV1 ovarian
DU-145 prostate = test system: DU-145 prostate

| Structure (SMILES) | GI50 (OVCAR-5 ovarian) [nM] | TGI (OVCAR-5 ovarian) [µM] | GI50 (HOP-92 NSCLC) [nM] | TGI (HOP-92 NSCLC) [µM] | GI50 (SN12C renal) [µM] | TGI (SN12C renal) [µM] | GI50 (SK-MEL-28 melanoma) [µM] | TGI (SK-MEL-28 melanoma) [µM] | GI50 (SK-OV-3 ovarian) [µM] | TGI (SK-OV-3 ovarian) [µM] | GI50 (SR leukemia) [µM] | TGI (SR leukemia) [µM] | GI50 (PC-3 prostate) [µM] | TGI (PC-3 prostate) [µM] | GI50 (K-562 leukemia) [nM] | TGI (K-562 leukemia) [µM] | GI50 (IGROV1 ovarian) [nM] | TGI (IGROV1 ovarian) [µM] | GI50 (DU-145 prostate) [µM] | TGI (DU-145 prostate) [µM] |
| --- | --- | --- | --- | --- | --- | --- | --- | --- | --- | --- | --- | --- | --- | --- | --- | --- | --- | --- | --- | --- |
| CCN(Cc1ccc(F)cc1F)c1ccc(CO)c(Cl)c1 | 68.5 | 0.317 | 1180 | 16.5 | 11.2 | 23.8 | 14.1 | 27.7 | 7.65 | 22.1 | 23.2 | 82.1 | 16.3 | 49.2 | 1650 | > 100 | 105 | 0.518 | 20.1 | > 70.9 |
| N#Cc1c2ccccc2c2nnc3cc(C(F)(F)F)ccc3n12 |  |  | 51500 | > 100 |  |  | 92.3 | > 100 | > 100 | > 100 | 31.3 | > 100 | 48.1 | > 100 | 48300 | > 100 | 46900 | > 100 | 58.4 | > 100 |
| COc1ccc(/C=C/C(=O)/C=C(/C=C/c2ccc(OC)c(OC)c2)OB(F)F)cc1OC | 2260 | 5.86 | 1710 | 4.89 |  |  | 1.18 | 3.1 | 2.98 | 12.1 | 0.287 | 1.69 | 1.05 | 7.51 | 463 | > 100 | 486 | 4.41 | 1.12 | 2.84 |
